Here are results for four compounds from US4957735A, “Target-sensitive immunoliposomes- preparation and characterization” (The University of Tennessee Research Corporation, priority 1987, dated 1990).

Converted amounts (≈) assume the structure as drawn. Read-outs that look alike come from different tables or passages of the source. Where only a bound is given, the exact number is not on record here.

One data set deals with L929 cells. Description: L929 cell toxicity assay ([3H]dT incorporation). Particulars: for CD50 (drug concentration required to inhibit 50% of [3H]dT incorporation): 42 hr. As to the method:
(§1) As a measure of cytotoxicity, the drug concentration required to inhibit 50% of [^3 H]dT incorporation 42 hr. later (CD50) was determined.
(§2) PI. […] At 42 hr. PI, the supernatant of the L929 cells was collected and titered for the virus yield. The toxicity of the drug on the general cell population was monitored by [^3 H]dT incorporation since both AraC and ACV inhibit the DNA synthesis.
(§3) L929 cells at 75-80% confluency in 96-well Coster plates were infected with 0.1 multiplicity of infection (MOI) in McCoy's medium with 2% CS for 1 hr. Then the infection medium was removed and replaced with McCoy's medium containing 10% CS. For the target sensitivity assay (see below), L929 cells were grown in 35-mm six-well Linbro plates and a similar procedure was used to infect the L929 cell with various concentration of HSV, ranging from 0-10 MOI.
(§4) HSV-infected L929 cells in 7-mm 96-well plates were used in these experiments and each experiment was performed in quadruplicate. At 3 hr. post infection (PI), the growth medium of infected or uninfected cell was removed, and replaced with 180 micro-l of either liposome-entrapped or free drug AraC or ACV containing medium.
(§5) In the experiments where nucleoside-transport inhibitors were used, the inhibitors were added at 30 min. prior to the AraC-entrapped liposome addition. Inhibitors were present throughout the assay. For the control experiments, the infection medium was replaced with the fresh growth medium. At 6 hr. PI, 1 micro-Ci of [^3 H]dT was added in 20 micro-l for cytotoxicity assay (see below). Then incubation continued at 37° C. in a CO2 incubator. At 42 hr. PI, the growth medium was removed and immediately titered for the virus yield using the 50% tissue culture infective dose (TCID50) assay using Vero cells. The TCID50 assay was done in quadruplicates and the results were expressed in average ±S.D.
(§6) Cytotoxicity of the L929 cells was determined by 20 labeling the cells at 6 hr. PI with [3H]dT. At 42 hr. PI, the growth medium was removed and the cells were washed with cold PBS for a total of three times. Then the DNA was precipitated with 5% trichloroacetic acid (TCA) at 4° C. After two cycles of 2 hr. incubation with fresh TCA, the precipitates at the bottom of the plates were washed one more time with 200 micro-l of fresh TCA. Finally, the precipitates were redissolved and dequenched with 1N NaOH overnight. The solubilized TCA precipitates were counted for tritium radioactivity. Data presented were the average ±S.D. of the quadruplicates.

Data set [1] can be described thus: L929 cell toxicity assay ([3H]dT incorporation). To be noted: mouse, l929 cells. As to the method:
as §1, §2, §3, §4, §5, §6

Data set [2] deals with HSV. Description: Efficacy in inhibiting HSV replication in L929 cells (virus yield, TCID50 assay). Format: cell-based, HSV-1, HF strain. To be noted: HSV-infected L929 cells; for free drug amount required for comparable antiviral activity relative to TS immunoliposome encapsulated AraC: FIG. 7B. As to the method: The HF strain of HSV-1 was propagated on Hep-2 cell. After 3 cycles of freeze and thawing of the virus infected cells, the virus released were isolated from the supernatant after palleting the cell debris at 1000 g for 10 min. These virus stock contained 1×10^8 pfu/ml and were stored in -70° C.
(§7) Inhibitors were present throughout the assay. […] At 6 hr. […] At 42 hr.

Data set [3] deals with HSV. Briefly: Repression of TS immunoliposome mediated therapeutic effect by nucleoside transport inhibitors (HSV yield, TCID50 assay). The class given is cell-based, HSV-1, HF strain. Particulars: for repression of therapeutic effect of AraC-encapsulated TS immunoliposomes: Table II; for Log[HSV], with liposome: 0.1 microg/ml AraC in TS immunoliposomes. Here is the method: While not wishing to be bound by theory, it is believed that the surface deposition of TS immunoliposomes was followed by transport of liposome-released drugs into the cytosol via cellular nucleoside transporters. To test this hypothesis, the effect on virus replication of two nucleoside transport inhibitors, p-nitrothiobenzylinosine, and dipyridamole were investigated.
PI was determined using the TCID50 assay described in Example 14
^b HSV infected cells were treated with or without 0.1 microg/ml
(ug/ml) of AraC encapsulated in the TS immunoliposomes.
as §7

The target of data set [4] is nucleoside transport system. To be noted: cited from earlier work.

Turning to `Nc1nc2c(ncn2COCCO)c(=O)[nH]1` [ACV, acycloguanosine], the “CD50 (drug concentration required to inhibit 50% of [3H]dT incorporation)” value in the data set with L929 cells turned out to be 12.5 ng/mL. The compound also yielded a CC50 at 42 h in data set [1] of 0.0125 µg/mL (≈ 0.0555 µM). The EC50 with HSV [2] (Human alphaherpesvirus 1, 42 hr. PI, FIG. 8, read-out: 50% effective dose (ED50), virus inhibition) came to 1.1 µg/mL (≈ 4.88 µM).
As to `Nc1ccn([C@@H]2O[C@H](CO)[C@@H](O)[C@@H]2O)c(=O)n1` [AraC, cytosine-beta-D-arabinoside], the “CD50 (drug concentration required to inhibit 50% of [3H]dT incorporation)” value with L929 cells was 0.3 ng/mL. Besides, in the data set on L929 cells (HSV-infected / host L929 cells), the “cytotoxicity” value was “cytotoxic to infected cells”. In addition, the “cytotoxicity to uninfected cells” value with L929 cells (uninfected control cells, [3H]dT incorporation) is “cytotoxic”. Also, it took 0.0003 µg/mL (≈ 0.00123 µM) to reach half-maximal cytotoxicity in data set [1] (CC50 at 42 h). For the same compound, the “inhibition of virus replication” value in the data set with HSV [2] is recorded as “only a marginal effect on virus replication”. For the same compound, the “free drug amount required for comparable antiviral activity relative to TS immunoliposome encapsulated AraC” value with HSV [2] is listed as “at least 1000 fold”; with HSV [2] (listed as free AraC) it was ≥ 1000 fold.
On to `OCCN(CCO)c1nc(N2CCCCC2)c2nc(N(CCO)CCO)nc(N3CCCCC3)c2n1` [Dipyridamole], for which, in the data set on HSV [3], the “repression of therapeutic effect of AraC-encapsulated TS immunoliposomes” value is “concentration dependent”. Also, in the data set on HSV [3] (inhibitor 1.4 uM), the “Log[HSV] Diff. (with vs without liposome)” value was 1.6; the “Log[HSV], without liposome” value is reported as 5.3 ± 0.3; the “Log[HSV], with liposome” value amounted to 3.7 ± 0.3. Besides, in the data set with HSV [3] (inhibitor 11.1 uM), the “Log[HSV] Diff. (with vs without liposome)” value came out at 1.4; the “Log[HSV], without liposome” value was 4.8 ± 0.3; the “Log[HSV], with liposome” value worked out at 3.4 ± 0.4. The Ki in data set [4] (noncompetitive inhibitor) was 3000 nM.
Consider `O=[N+]([O-])c1ccc(CSc2ncnc3c2ncn3[C@@H]2O[C@H](CO)[C@@H](O)[C@H]2O)cc1` [p-Nitrothiobenzylinosine, S-(p-Nitrobenzyl)-6-thioinosine], for which, in the data set with HSV [3], the “repression of therapeutic effect of AraC-encapsulated TS immunoliposomes” value is “concentration dependent”. In addition, in the data set with HSV [3] (inhibitor 12.5 nM), the “Log[HSV] Diff. (with vs without liposome)” value is reported as 2.3; the “Log[HSV], without liposome” value was determined as 5.1 ± 0.9; the “Log[HSV], with liposome” value is 2.8 ± 0.8. In the data set on HSV [3] (inhibitor 100.0 nM), the “Log[HSV] Diff. (with vs without liposome)” value is reported as 0.8; the “Log[HSV], without liposome” value is reported as 4.6 ± 0.2; the “Log[HSV], with liposome” value was 3.8 ± 0.4. Also, the inhibitory constant (Ki) in data set [4] (competitive inhibitor) is 1 nM.

A word on the CC50: it is the concentration that lowers cell viability or growth by half. Low readings indicate harm at low concentration, high ones better tolerance by the cells. In general, Ki refers to a dissociation constant, usually derived from enzyme kinetics or from competition with a known ligand.
